Reference: US7927622B1, “Methods of transnasal transport/immunization with highly adaptable carriers” (priority 1999, dated 2011)
Non-standard residues stand in square brackets, D forms with d. Residues, ends and D or L forms follow the SMILES beside them. dTrp(2-Me) = Cc1[nH]c2ccccc2c1C[C@@H](N)C(=O)O

Experiments:
[1] = in vivo; cited from earlier work
[2] = in vivo, cited from earlier work
[3] = in vivo; cited from earlier work; remark: listed apart in the source
[4] = in vivo; cited from earlier work; remark: listed apart in the source
GH response = conditions: in vivo, cited from earlier work
[5] = in vivo; cited from earlier work; remark: listed apart in the source
[6] = human, in vivo, cited from earlier work
[7] = cited from earlier work
[8] = in vivo; cited from earlier work; remark: listed apart in the source
A-receptor subtype = A-receptor subtype (Canis lupus familiaris, UniProt Q5D0K2); conditions: dog, in vivo; cited from earlier work
[9] = human, in vivo; cited from earlier work
[10] = rat, in vivo, sc; cited from earlier work
[11] = in vivo; cited from earlier work; remark: listed apart in the source
anti-TT antibodies = system: anti-TT antibodies; set-up: species or system mice; conditions: mouse, in vivo
[12] = stomach and GI tract, cited from earlier work
[13] = cited from earlier work; remark: listed apart in the source
[14] = cited from earlier work; remark: listed apart in the source
[15] = with polyoxyethylene 9-lauryl ether (Laureth-9)

Chain of A-receptor subtype (Q5D0K2 whole entry): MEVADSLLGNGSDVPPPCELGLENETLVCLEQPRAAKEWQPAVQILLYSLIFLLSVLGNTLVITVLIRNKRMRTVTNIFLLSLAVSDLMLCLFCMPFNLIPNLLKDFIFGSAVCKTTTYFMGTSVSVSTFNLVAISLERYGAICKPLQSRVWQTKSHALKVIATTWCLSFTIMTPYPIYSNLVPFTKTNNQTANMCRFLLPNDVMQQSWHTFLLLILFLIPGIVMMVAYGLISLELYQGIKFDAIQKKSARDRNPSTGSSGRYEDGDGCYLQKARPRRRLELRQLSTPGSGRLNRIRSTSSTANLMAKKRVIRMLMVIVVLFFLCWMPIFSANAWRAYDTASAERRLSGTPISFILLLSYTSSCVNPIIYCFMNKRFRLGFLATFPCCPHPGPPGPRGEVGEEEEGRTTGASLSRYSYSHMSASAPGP

NC(=O)CC[C@@H]1NC(=O)[C@H](Cc2ccccc2)NC(=O)[C@H](Cc2ccc(O)cc2)NC(=O)[C@@H](N)CSSC[C@@H](C(=O)N2CCC[C@H]2C(=O)N[C@@H](CCCN=C(N)N)C(=O)NCC(N)=O)NC(=O)[C@H](CC(N)=O)NC1=O [AVP]
memory performance [1]: enhanced memory performance
plasma vasopressin increase after i.v. relative to the other route ([2]; iv): exceeding 2000 fold
P3 component of the ERP [2]: substantially increased

NC(=O)CC[C@@H]1NC(=O)[C@H](Cc2ccccc2)NC(=O)[C@H](Cc2ccc(O)cc2)NC(=O)CCSSC[C@@H](C(=O)N2CCC[C@H]2C(=O)N[C@H](CCCN=C(N)N)C(=O)NCC(N)=O)NC(=O)[C@H](CC(N)=O)NC1=O [DDAVP]
pain perception [3]: no general effect

CCNC(=O)[C@@H]1CCCN1C(=O)[C@H](CCCNC(=N)N)NC(=O)[C@H](CC(C)C)NC(=O)[C@@H](COC(C)(C)C)NC(=O)[C@H](Cc1ccc(O)cc1)NC(=O)[C@H](CO)NC(=O)[C@H](Cc1c[nH]c2ccccc12)NC(=O)[C@H](Cc1cnc[nH]1)NC(=O)[C@@H]1CCC(=O)N1 [buserelin]
AFS mean pelvic score after treatment (from 24) [4]: 7
decrease of the size of the fibroids [4]: 69%

Cc1[nH]c2ccccc2c1C[C@@H](NC(=O)[C@@H](N)Cc1cnc[nH]1)C(=O)N[C@@H](C)C(=O)N[C@@H](Cc1c[nH]c2ccccc12)C(=O)N[C@H](Cc1ccccc1)C(=O)N[C@@H](CCCCN)C(N)=O [hexarelin] (H-H[dTrp(2-Me)]AW[dF]K-NH2)
IGF-I and IGFBP-3 levels (GH response; po): slightly but significantly increased
GH response (GH response): not significantly higher than that induced by an injection of 1 μg GHRH/kg
IGF-I (GH response): did not significantly modify
IGFBP-3 levels (GH response): increased

NC(=O)CC[C@@H]1NC(=O)[C@H](Cc2ccccc2)NC(=O)[C@H](Cc2ccc(O)cc2)NC(=O)[C@@H](N)CSSC[C@@H](C(=O)N2CCC[C@H]2C(=O)N[C@@H](CCCN=C(N)N)C(=O)NCC(N)=O)NC(=O)[C@H](CC(N)=O)NC1=O [vasopressin]
nocturnal slow-wave sleep [5]: enhance nocturnal slow-wave sleep

CCK-8
auditory event related potential (AERP) ([6]; iv): shown to affect the auditory event related potential (AERP)
plasma CCK-8 concentrations vs 0.25 μg i.v. [6]: comparable
plasma CCK-8 concentrations vs 2.5 μg i.v. [6]: substantially lower

GH: growth hormone protein
serum GH peak value ([7]; i.v. 0.015 IU/kg): 128 µg/L
serum GH peak level ([7]; s.c. 0.10 IU/kg): around 14 μg/L
serum IGF-I levels ([7]; s.c. administration only): increased significantly
bioavailability ([7]; s.c. injection): 50%

GHRP-2
response to intranasal GHRP-2 [8]: significant, but not quantitated, response

Hpa(SO3H)-Nle-Gly-Trp-Nle-MeAsp-Phe-NH2
feeding (A-receptor subtype): inhibited feeding

Salmon calcitonin
decrease in serum 1,25-dihydroxyvitamin D [9]: 14%
inhibition of the increase in fasting 2 h urinary hydroxyproline/creatinine ratio (OHPr/Cr) [9]: 40%
lowering of the increase in calcium/creatinine ratio (Ca/Cr) [9]: 80%
pain scores (visual analog scale) [9]: did not influence the pain scores
tolerability [9]: well tolerated
effectiveness of the invasive method relative to nasal [10]: approximately 2 times
osteopenic changes [10]: prevented the osteopenic changes

desglycinamide-[Arg8]vasopressin [DGAVP]
learning concrete words [11]: no positive effect
reaction time for scanning of digits (Sternberg paradigm) [11]: reduced the reaction time
short-term memory for abstract words [11]: improved short-term memory for abstract words in males but not in females

monophosphoryl Lipid A [LA]
dependence of immune response on LA (anti-TT antibodies): no strong dependence was found
dose dependence of TT-specific increase in serum absorbance (anti-TT antibodies): reverting this trend
effect of LA with purified TT (anti-TT antibodies): profited from the presence of LA

B1: OVA: ovalbumin (protein, UniProt P01012 2-386, looked up)
Ovalbumin: GSIGAASMEFCFDVFKELKVHHANENIFYCPIAIMSALAMVYLGAKDSTRTQINKVVRFDKLPGFGDSIEAQCGTSVNVHSSLRDILNQITKPNDVYSFSLASRLYAEERYPILPEYLQCVKELYRGGLEPINFQTAADQARELINSWVESQTNGIIRNVLQPSSVDSQTAMVLVNAIVFKGLWEKAFKDEDTQAMPFRVTEQESKPVQMMYQIGLFRVASMASEKMKILELPFASGTMSMLVLLPDEVSGLEQLESIINFEKLTEWTSSNVMEERKIKVYLPRMKMEEKYNLTSVLMAMGITDVFSSSANLSGISSAESLKISQAVHAAHAEINEAGREVVGSAEAGVDAASVSEEFRADHPFLFCIKHIATNAVLFFGRCVSP
absorption into the blood circulation, of applied dose ([12]; first printed range): 0.007-0.008%
absorption into the lymph circulation, of applied dose ([12]; second printed range): 0.0007-0.002%

B2: rhG-CSF: recombinant human granulocyte colony-stimulating factor, MW=19600 (protein, UniProt P09919 31-207, looked up)
Granulocyte …: TPLGPASSLPQSFLLKCLEQVRKIQGDGAALQEKLVSECATYKLCHPEELVLLGHSLGIPWAPLSSCPSQALQLAGCLSQLHSGLFLYQGLLQALEGISPELGPTLDTLQLDVADFATTIWQQMEELGMAPALQPTQGAMPAFASAFQRRAGGVLVASHLQSFLEVSYRVLRHLAQP
total leukocyte numbers in peripheral blood ([13]; nasal, pH 4, with or without dimethyl-β-cyclodextrin): increased
absorption with excipients ([13]; with dimethyl-β-cyclodextrin): improved the absorption of rhG-CSF appreciably
availability from leukocyte stimulation counts ([14]; nasal, t=48 h): 5-10%
relative bioavailability compared to s.c. injection (plasma AUC) ([14]; rat, in vivo): approximately 2%
increase of pharmacological availability [14, 15]: 3 times
increase of relative bioavailability [14, 15]: 23 times
change of availability ([14]; with sodium glycocholate): no increase in availability
